The target of one experiment is T1, MCP-1 receptor B (CCR2B) (Homo sapiens, UniProt P41597).
T1 construct: expressed in transfected cells; membrane fragments
T1 sequence (P41597 1-360 isoform P41597-2): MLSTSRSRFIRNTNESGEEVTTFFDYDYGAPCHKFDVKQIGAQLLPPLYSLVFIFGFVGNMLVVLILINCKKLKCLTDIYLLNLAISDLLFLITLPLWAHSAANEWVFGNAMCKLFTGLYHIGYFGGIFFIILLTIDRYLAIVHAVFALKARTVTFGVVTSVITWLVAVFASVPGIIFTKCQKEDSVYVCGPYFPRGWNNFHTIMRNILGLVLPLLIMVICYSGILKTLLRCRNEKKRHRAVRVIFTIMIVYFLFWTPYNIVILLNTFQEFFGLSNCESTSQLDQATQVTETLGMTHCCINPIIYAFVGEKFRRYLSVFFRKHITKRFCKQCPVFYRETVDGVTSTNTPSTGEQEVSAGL
As to the kind of experiment: hMCP-1 receptor binding assay (125I-MCP-1, CHO-CCR2B cell membranes). The text has this: The MCP-1 receptor B (CCR2B) cDNA was cloned by PCR from THP-1 cell RNA using suitable oligonucleotide primers based on the published MCP-1 receptor sequences (Charo et al., 1994, Proc. Natl. Acad Sci. USA. 91, 2752). The resulting PCR products were cloned into vector PCR-II™ (In Vitrogen, San Diego, Calif.). Error free CCR2B cDNA was subcloned as a Hind III-Not I fragment into the eukaryotic expression vector pCDNA3 (In Vitrogen) to generate pCDNA3/CC-CKR2A and pCDNA3/CCR2B respectively.
Linearised pCDNA3/CCR2B DNA was transfected into CHO-K1 cells by calcium phosphate precipitation (Wigler et al., 1979, Cell, 16, 777). Transfected cells were selected by the addition of Geneticin Sulphate (G418, Gibco BRL) at 1 mg/ml, 24 hours after the cells had been transfected. Preparation of RNA and Northern blotting were carried out as described previously (Needham et al., 1995, Prot. Express. Purific., 6, 134). CHO-K1 clone 7 (CHO-CCR2B) was identified as the highest MCP-1 receptor B expressor.
CHO-CCR2B cells were grown in DMEM supplemented with 10% foetal calf serum. 2 mM glutamine. […]
^125I MCP-1 was prepared using Bolton and Hunter conjugation (Bolton et al. 1973. Biochem. J., 133, 529, Amersham International plc]. Equilibrium binding assays were carried out using the method of Ernst et al., 1994, J. Immunol., 152, 3541. Briefly, varying amounts of ^125I-labeled MCP-1 were added to 7 μg of purified CHO-CCR2B cell membranes in 100 μl of Binding Buffer. After 1 hour incubation at room temperature the binding reaction mixtures were filtered and washed 5 times through a plate washer (Brandel MLR-96T Cell Harvester) using ice cold Binding Buffer. Filter mats (Brandel GF/B) were pre-soaked for 60 minutes in 0.3% polyethylenimine prior to use. Following filtration individual filters were separated into 3.5 ml tubes (Sarstedt No. 55,484) and bound ^125I-labeled MCP-1 was determined (LKB 1277 Gammamaster). […] Non-specific binding was determined by the inclusion of a 200-fold molar excess of unlabelled MCP-1 in the reaction. […]

Experiment [1] deals with THP-1 cells. As to the kind of experiment: MCP-1 mediated calcium flux in THP-1 cells. The experiment is classed as cell-based, human. As to conditions: stimulation of THP-1 cells, approximate; read-out: EC50 for rise in [Ca2+]i. As to the method: The human monocytic cell line THP-1 was grown in a synthetic cell culture medium RPMI 1640 supplemented with 10% foetal calf serum. 6 mM glutamine and Penicillin-Streptomycin (at 50 μg streptomycin/mil, Gibco BRL). THP-1 cells were washed in HBSS (lacking Ca^2+ and Mg^2+)+1 mg/ml BSA and resuspended in the same buffer at a density of 3×10^6 cells/ml. The cells were then loaded with […] FURA-2/AM for 30 min at 37° C., washed twice in HBSS, and resuspended at 1×10^6 cells/ml. THP-1 cell suspension (0.9 ml) was added to a 5 ml disposable cuvette containing a magnetic stirrer bar and 2.1 ml of prewarmed (37° C.) HBSS containing 1 mg/ml BSA. 1 mM MgCl2 and 2 mM CaCl2. The cuvette was placed in a fluorescence spectrophotometer (Perkin Elmer, Norwalk, Conn.) and preincubated for 4 min at 37° C. with stirring. Fluorescence was recorded over 70 sec and cells were stimulated by addition of hMCP-1 to the cuvette after 10 sec. [Ca^2+]i was measured by excitation at 340 nm and 380 nm alternately and subsequent measurement of the intensity of the fluorescence emission at 510 nm.
where the Kd for FURA-2 Ca^2+ complex at 37° C. was taken to be 224 nm. […]
Background: Calcium flux is commonly read through the fluorescence of an indicator in the cells.

In experiment [2] the test system is THP-1 cells. As to the kind of experiment: hMCP-1 mediated chemotaxis. In kind it is cell-based, human. As to conditions: THP-1 cell migration. Here is the method: In vitro chemotaxis assays were performed using the human monocytic cell line THP-1. Cell migration through polycarbonate membranes was measured by enumerating those passing through either directly by Coulter counting or indirectly by use of a colourimetric viability assay measuring the cleavage of a tetrazolium salt by the mitochondrial respirator chain (Scudiero D. A., et al. 1988, Cancer Res., 48, 4827-4833).
Chemoattractants were introduced into a 96-well microtitre plate which forms the lower well of a chemotaxis chamber fitted with a PVP-free 5 μm poresize polycarbonate adhesive framed filter membrane (NeuroProbe MB series, Cabin John, Md. 20818, USA) according to the manufacturer's instructions. The chemoattractant was diluted as appropriate in synthetic cell culture medium. […] The plate was incubated at 37° C. for 3 h and the absorbance of the soluble formazan product was read on a microtitre plate reader at 450 nm. The data was input into a spreadsheet, corrected for any random migration in the absence of chemoattractant and the average absorbance values, standard error of the mean, and significance tests were calculated, hMCP-1 induced concentration dependent cell migration with a characteristic biphasic response, maximal 0.5-1.0 nm. […]

The results in this text go back to US6833387B1, “Chemical compounds” (AstraZeneca AB, priority 1999, dated 2004).

Like-named read-outs stand apart in the source and are kept apart here.

On to `O=C(NC1CCS(=O)(=O)C1)c1c(C(=O)O)n(Cc2ccc(Cl)c(Cl)c2)c2ccccc12` (centres unmarked) [Compound 81], for which the half-maximal inhibitory concentration (IC50) at MCP-1 receptor B (CCR2B) (competition with 100 pM labelled MCP-1, CHO-CCR2B membranes, read-out: IC50 in the hMCP-1 receptor binding assay) came to 6860 nM.
For the compound “MCP-1: Human Monocyte Chemoattractant Protein-1, a C—C chemokine; ligand of the MCP-1 (CCR2) receptor”, in the experiment with MCP-1 receptor B (CCR2B) (membrane fragments from CHO-CCR2B cells, cold competition, read-out: IC50 of MCP-1 binding to CCR2B), the IC50 is 0.11 nM. The same compound gave a Kd with MCP-1 receptor B (CCR2B) (membrane fragments from CHO-CCR2B cells, equilibrium binding) of 0.12 nM. The EC50 in the experiment on THP-1 cells [1] was around 2 nM. The “concentration of maximal cell migration (biphasic response)” value in the experiment on THP-1 cells [2] is given as 0.5-1.0 nm.

What is called IC50 is the midpoint of a concentration-inhibition curve. By Kd is commonly meant the constant that tells how readily two partners part at equilibrium. A low value points to higher affinity. Usually EC50 stands for the concentration at which the effect is half-maximal.
